Patent publication US20210317140A1, “Heterocyclic Compounds and Methods of Use” (MEDIVATION TECHNOLOGIES, INC, priority 2013, published 2021)

Columns and labels:
PI3Kδ = biological target: T1, PI3Kδ (Homo sapiens, UniProt O00329); assay: PI3Kδ kinase assay (HTRF, PIP3 detection); assay type: biochemical; details: for PI3Kδ @ 0.1 μM (% Inh): 0.1 μM compound; for PI3Kδ @ 0.1 μM (% Inh) / PI3Kδ @ 1 μM (% Inh) / PI3Kδ @ 0.01 μM (% Inh): 10 μM ATP; for PI3Kδ @ 1 μM (% Inh): 1 μM compound; for IC50: 10 dose IC50, 10 μM ATP; for PI3Kδ @ 0.01 μM (% Inh): 0.01 μM compound
T1 construct: purchased Reaction Biology Corporation
Text: (§1) Compounds of the invention were profiled in a 10 dose IC50 panel against BTK and PI3Kδ, both provided by Reaction Biology Corporation.
PI3Kδ assay: The PIP3 product is detected by displacement of biotin-PIP3 from an energy transfer complex consisting of Europium labeled anti-GST monoclonal antibody, a GST-tagged pleckstrin homology (PH) domain, biotinylated PIP3 and Streptavidin-Allophycocyanin (APC). […] The PIP3 product formed by PI 3-Kinase(h) activity displaces biotin-PIP3 from the complex resulting in a loss of energy transfer and thus a decrease in signal. This is a 3-step reaction: First, the kinase reaction with PIP2 substrate is carried out in the presence of ATP (10 μM), and the reaction is quenched with stop Solution, and then finally detect by adding Detection Mixture followed by incubation (10 min). Reaction procedure: 1) Prepare substrate in freshly prepared Reaction Buffer. 2) Deliver kinase into the substrate solution and gently mix. 3) Deliver compounds in 100% DMSO (1 μM) into the kinase reaction mixture by Acoustic technology (Echo550; nanoliter range), incubate for 10 min at RT. 4) Deliver ATP into the reaction mixture to initiate the reaction. 5) Incubate for 30 min at 30° C. 6) Quench the reaction with Stop Solution. 7) Add Detection Mixture, and incubate for overnight. […] The emission ratio is converted into μM PIP3 production based on PIP3 standard curves. The nonlinear regression to obtain the standard curve and IC50 values are performed using Graphpad Prism software. Assay Buffer: HEPES 50 mM (pH7.0), NaN3 0.02%, BSA 0.01%, Orthovanadate 0.1 mM, 1% DMSO. Detection buffer: HEPES 10 mM (pH7.0), BSA 0.02%, KF 0.16 M, EDTA 4 mM. Substrate: 10 μM PIP2 substrate (PI(4,5)P2).

BTK = biological target: T2, BTK (Homo sapiens, UniProt Q06187); assay: BTK kinase assay (HotSpot, 33P ATP); assay type: biochemical; details: for BTK @ 0.1 μM (% Inh): 0.1 μM compound; for BTK @ 0.1 μM (% Inh) / BTK @ 1 μM (% Inh) / BTK @ 0.01 μM (% Inh): 10 μM ATP; for BTK @ 1 μM (% Inh): 1 μM compound; for IC50: 10 dose IC50, 10 μM ATP; for BTK @ 0.01 μM (% Inh): 0.01 μM compound
T2 construct: purchased Reaction Biology Corporation
Description: as §1
BTK assay: In vitro profiling protein kinases was performed using the “HotSpot” assay platform. Briefly, specific kinase/substrate pairs along with required cofactors were prepared in reaction buffer. Compounds were prepared as 10 mM stock solutions in DMSO. Compounds were delivered into the reaction, followed 15-20 minutes later by addition of a mixture of ATP (Sigma, St. Louis Mo.) and ^33P ATP (Perkin Elmer, Waltham Mass.) to a final concentration of 10 μM. […] IC50 values and curve fits were obtained using Prism (GraphPad Software). Buffer Conditions: 20 mM Hepes (pH 7.5), 10 mM MgCl2, 1 mM EGTA, 0.02% Brij35, 0.02 mg/mL BSA, 0.1 mM Na3VO4, 2 mM DTT, 1% DMSO.

T1 sequence (O00329 whole entry): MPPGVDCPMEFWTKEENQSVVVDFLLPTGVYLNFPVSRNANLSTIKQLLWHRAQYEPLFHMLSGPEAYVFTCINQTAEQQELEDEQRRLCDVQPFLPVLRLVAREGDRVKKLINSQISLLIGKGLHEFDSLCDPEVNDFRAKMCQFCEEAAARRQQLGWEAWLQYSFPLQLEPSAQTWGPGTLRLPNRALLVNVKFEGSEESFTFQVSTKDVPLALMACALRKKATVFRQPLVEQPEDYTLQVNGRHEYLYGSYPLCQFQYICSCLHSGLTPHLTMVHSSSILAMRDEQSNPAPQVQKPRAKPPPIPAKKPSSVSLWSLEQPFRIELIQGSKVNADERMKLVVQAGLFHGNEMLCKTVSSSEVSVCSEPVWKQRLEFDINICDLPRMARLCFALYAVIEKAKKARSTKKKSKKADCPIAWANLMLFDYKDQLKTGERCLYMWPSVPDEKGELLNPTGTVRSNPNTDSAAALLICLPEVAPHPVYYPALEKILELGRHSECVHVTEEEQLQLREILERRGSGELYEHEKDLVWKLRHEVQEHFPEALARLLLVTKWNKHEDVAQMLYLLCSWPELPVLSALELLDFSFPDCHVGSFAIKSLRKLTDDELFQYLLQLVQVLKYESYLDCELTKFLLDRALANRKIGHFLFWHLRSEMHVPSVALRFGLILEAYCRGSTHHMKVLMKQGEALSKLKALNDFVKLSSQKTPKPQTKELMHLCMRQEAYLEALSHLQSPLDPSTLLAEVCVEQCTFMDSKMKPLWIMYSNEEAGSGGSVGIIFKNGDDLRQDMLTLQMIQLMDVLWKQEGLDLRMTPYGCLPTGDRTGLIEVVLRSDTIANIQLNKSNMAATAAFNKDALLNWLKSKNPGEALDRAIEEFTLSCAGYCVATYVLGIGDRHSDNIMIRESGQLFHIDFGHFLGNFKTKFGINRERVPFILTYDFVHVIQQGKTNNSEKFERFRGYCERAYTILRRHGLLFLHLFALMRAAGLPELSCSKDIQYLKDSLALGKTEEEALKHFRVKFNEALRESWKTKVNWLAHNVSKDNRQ
T1 sequence (P27986 whole entry partner): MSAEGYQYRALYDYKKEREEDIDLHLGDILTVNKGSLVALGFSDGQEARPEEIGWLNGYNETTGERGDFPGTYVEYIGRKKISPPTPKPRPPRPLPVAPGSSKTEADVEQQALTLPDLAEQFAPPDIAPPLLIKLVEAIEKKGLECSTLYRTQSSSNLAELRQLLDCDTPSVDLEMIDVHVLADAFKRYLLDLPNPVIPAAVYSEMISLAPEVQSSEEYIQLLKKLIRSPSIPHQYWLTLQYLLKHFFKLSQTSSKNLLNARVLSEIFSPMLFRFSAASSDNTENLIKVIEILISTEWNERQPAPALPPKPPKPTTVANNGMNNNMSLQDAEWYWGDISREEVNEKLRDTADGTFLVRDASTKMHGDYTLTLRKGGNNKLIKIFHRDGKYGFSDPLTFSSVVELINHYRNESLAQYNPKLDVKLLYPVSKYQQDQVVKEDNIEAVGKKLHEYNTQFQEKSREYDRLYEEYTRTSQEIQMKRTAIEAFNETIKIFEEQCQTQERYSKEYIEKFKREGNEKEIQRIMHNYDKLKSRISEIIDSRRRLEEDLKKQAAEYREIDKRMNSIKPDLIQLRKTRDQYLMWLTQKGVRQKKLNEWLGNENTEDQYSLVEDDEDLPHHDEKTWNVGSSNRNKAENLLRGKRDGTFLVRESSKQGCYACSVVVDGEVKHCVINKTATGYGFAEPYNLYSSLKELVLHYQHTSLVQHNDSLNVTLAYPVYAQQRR
T2 sequence (Q06187 whole entry): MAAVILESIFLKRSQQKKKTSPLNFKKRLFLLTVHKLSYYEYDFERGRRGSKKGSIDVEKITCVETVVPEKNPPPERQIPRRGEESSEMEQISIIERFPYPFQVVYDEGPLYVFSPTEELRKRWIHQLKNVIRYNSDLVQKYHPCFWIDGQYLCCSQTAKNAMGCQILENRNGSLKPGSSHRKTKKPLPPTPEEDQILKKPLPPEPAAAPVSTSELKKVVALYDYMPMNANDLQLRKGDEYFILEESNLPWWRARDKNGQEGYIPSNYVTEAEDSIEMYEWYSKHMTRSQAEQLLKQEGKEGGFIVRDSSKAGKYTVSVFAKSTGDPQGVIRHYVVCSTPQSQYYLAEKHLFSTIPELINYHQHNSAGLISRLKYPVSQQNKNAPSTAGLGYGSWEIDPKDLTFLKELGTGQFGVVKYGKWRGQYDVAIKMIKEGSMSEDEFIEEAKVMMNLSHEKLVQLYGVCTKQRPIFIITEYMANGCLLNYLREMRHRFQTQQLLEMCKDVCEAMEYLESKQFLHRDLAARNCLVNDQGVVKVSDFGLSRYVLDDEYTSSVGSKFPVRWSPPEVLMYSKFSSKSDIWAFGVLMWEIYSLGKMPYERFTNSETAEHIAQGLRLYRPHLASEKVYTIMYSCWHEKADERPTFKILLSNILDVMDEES

PI3Kδ @ 0.1 μM (% Inh) (PI3Kδ) | PI3Kδ @ 1 μM (% Inh) (PI3Kδ) | IC50 (PI3Kδ) | BTK @ 0.1 μM (% Inh) (BTK) | BTK @ 1 μM (% Inh) (BTK) | IC50 (BTK) | PI3Kδ @ 0.01 μM (% Inh) (PI3Kδ) | BTK @ 0.01 μM (% Inh) (BTK) | SMILES
45.54 % Inh |  |  | 96.31 % Inh |  |  | 6.28 % Inh | 87.65 % Inh | Nc1ncnc2c(C3Cc4ccccc4C3)cn(-c3cc(O)c(F)c(F)c3)c12 [compound 137, 5-[4-amino-7-(2,3-dihydro-1H-inden-2-yl)-5H-pyrrolo[3,2-d]pyrimidin-5-yl]-2,3-difluorophenol]
4.96 % Inh | 43.86 % Inh |  | 18.18 % Inh | 54.62 % Inh |  |  |  | Nc1ncnc2c1c(-c1cccc3[nH]ccc13)nn2C1Cc2ccccc2C1 [Compound No. 78, 1-(2,3-dihydro-1H-inden-2-yl)-3-(1H-indol-4-yl)-1H-pyrazolo[3,4-d]pyrimidin-4-amine]
 |  | 1830 nM |  |  | 584 nM |  |  | COc1cc(F)cc(-c2nn(C3CCc4ccccc43)c3ncnc(N)c23)c1 (stereo not shown) [compound 4, 1-(2,3-dihydro-1H-inden-1-yl)-3-(3-fluoro-5-methoxyphenyl)-1H-pyrazolo[3,4-d]pyrimidin-4-amine]
80.15 % Inh |  |  | 4.89 % Inh |  |  |  |  | Nc1ncnc2c1c(-c1cc(O)cc(F)c1)nn2C1CCCc2ccc(F)cc21 (stereo not shown) [compound 41, 3-[4-amino-1-(7-fluoro-1,2,3,4-tetrahydronaphthalen-1-yl)-1H-pyrazolo[3,4-d]pyrimidin-3-yl]-5-fluorophenol]
64.19 % Inh |  | 13 nM | 35.16 % Inh |  | 217 nM |  |  | Nc1ncnc2c1c(-c1cc(O)cc(F)c1)nn2C1CCc2ccccc21 (stereo not shown) [compound 30, 3-(4-amino-1-indan-1-yl-pyrazolo[3,4-d]pyrimidin-3-yl)-5-fluoro-phenol]
56.42 % Inh |  |  | 43.28 % Inh |  |  |  |  | Nc1ncnc2c1c(-c1ccc(Br)c(O)c1)nn2C1CCc2ccccc21 (stereo not shown) [compound 36, 5-[4-amino-1-(2,3-dihydro-1H-inden-1-yl)-1H-pyrazolo[3,4-d]pyrimidin-3-yl]-2-bromophenol]
32.36 % Inh | 71.04 % Inh |  | 16.63 % Inh | 45.41 % Inh |  |  |  | COc1cncc(-c2nn(C3Cc4ccccc4C3)c3ncnc(N)c23)c1 [Compound No. 61, 1-(2,3-dihydro-1H-inden-2-yl)-3-(5-methoxypyridin-3-yl)-1H-pyrazolo[3,4-d]pyrimidin-4-amine]
8.16 % Inh |  |  | 78.95 % Inh |  |  | 13.47 % Inh | 34.28 % Inh | Nc1cc(-c2nn(C3Cc4ccccc4C3)c3ncnc(N)c23)ccc1F [Compound No. 87, 3-(3-amino-4-fluorophenyl)-1-(2,3-dihydro-1H-inden-2-yl)-1H-pyrazolo[3,4-d]pyrimidin-4-amine]
71.5 % Inh |  |  | 22.48 % Inh |  |  | 29.77 % Inh | 8.16 % Inh | N#Cc1ccc(-c2nn(C3Cc4ccccc4C3)c3ncnc(N)c23)cc1O [Compound No. 94, 4-[4-amino-1-(2,3-dihydro-1H-inden-2-yl)-1H-pyrazolo[3,4-d]pyrimidin-3-yl]-2-hydroxybenzonitrile]
17.95 % Inh |  |  | 30.58 % Inh |  |  | 0.76 % Inh | 8.84 % Inh | Nc1ncnc2c1c(-c1ccc(F)c(F)c1)nn2C1Cc2ccccc2C1 [Compound No. 89, 3-(3,4-difluorophenyl)-1-(2,3-dihydro-1H-inden-2-yl)-1H-pyrazolo[3,4-d]pyrimidin-4-amine]

Second part, the compound before the results:

SMILES | PI3Kδ @ 0.1 μM (% Inh) (PI3Kδ) | PI3Kδ @ 1 μM (% Inh) (PI3Kδ) | IC50 (PI3Kδ) | BTK @ 0.1 μM (% Inh) (BTK) | BTK @ 1 μM (% Inh) (BTK) | IC50 (BTK) | PI3Kδ @ 0.01 μM (% Inh) (PI3Kδ) | BTK @ 0.01 μM (% Inh) (BTK)
Nc1ncnc2c1c(-c1ccccc1CO)nn2C1Cc2ccccc2C1 [Compound No. 53, {2-[4-amino-1-(2,3-dihydro-1H-inden-2-yl)-1H-pyrazolo[3,4-d]pyrimidin-3-yl]phenyl}methanol] | 30.15 % Inh | 81.32 % Inh | 645 nM | 30.42 % Inh | 76.1 % Inh | 575 nM |  | 
COc1ccc(-c2nn(C3CCc4ccccc4C3)c3ncnc(N)c23)cc1F (single isomer, unassigned) [Compound No. 14a, 3-(3-fluoro-4-methoxyphenyl)-1-(1,2,3,4-tetrahydronaphthalen-2-yl)-1H-pyrazolo[3,4-d]pyrimidin-4-amine] |  |  | 102 nM |  |  | 784 nM |  | 
COc1cc(-c2nn(C3Cc4ccccc4C3)c3ncnc(N)c23)cc(C(F)(F)F)c1F [Compound No. 92, 1-(2,3-dihydro-1H-inden-2-yl)-3-[4-fluoro-3-methoxy-5-(trifluoromethyl)phenyl]-1H-pyrazolo[3,4-d]pyrimidin-4-amine] | 9.31 % Inh |  |  | 3.3 % Inh |  |  | 11.71 % Inh | 1.24 % Inh
Nc1ncnc2c1c(-c1cc(O)c(F)c(F)c1)nn2C1Cc2cc(F)ccc2C1=O (stereo not shown) [compound 127, 2-[4-amino-3-(3,4-difluoro-5-hydroxyphenyl)-1H-pyrazolo[3,4-d]pyrimidin-1-yl]-5-fluoro-2,3-dihydro-1H-inden-1-one] | 51.48 % Inh |  |  | 21.87 % Inh |  |  | 16.23 % Inh | 9.24 % Inh
CCOc1c(Cl)cc(-c2nn(C3Cc4ccccc4C3)c3ncnc(N)c23)cc1OC [Compound No. 77, 3-(3-chloro-4-ethoxy-5-methoxyphenyl)-1-(2,3-dihydro-1H-inden-2-yl)-1H-pyrazolo[3,4-d]pyrimidin-4-amine] | −1.66 % Inh | 16.5 % Inh |  | 24.85 % Inh | 76.64 % Inh |  |  | 
CC(=O)Nc1cc(F)cc(-c2nn(C3Cc4ccccc4C3)c3ncnc(N)c23)c1 [Compound No. 60, N-{3-[4-amino-1-(2,3-dihydro-1H-inden-2-yl)-1H-pyrazolo[3,4-d]pyrimidin-3-yl]-5-fluorophenyl}acetamide] | 10.65 % Inh | 31.35 % Inh |  | 16.91 % Inh | 30.02 % Inh |  |  | 
Nc1ncnc2c1c(-c1cnc3[nH]ccc3c1)nn2C1CCc2ccccc2C1 (racemic) [compound 16, 3-(1H-pyrrolo[2,3-b]pyridin-5-yl)-1-(1,2,3,4-tetrahydronaphthalen-2-yl)-1H-pyrazolo[3,4-d]pyrimidin-4-amine] | 51.94 % Inh |  |  | 24.0 % Inh |  |  |  | 
Nc1ncnc2c1c(-c1ccc(O)cc1)nn2C1CCc2ccccc2C1 (racemic) [compound 21, 4-(4-amino-1-(1,2,3,4-tetrahydronaphthalen-2-yl)-1H-pyrazolo[3,4-d]pyrimidin-3-yl)phenol] |  |  | 104 nM |  |  | 192 nM |  | 
COc1ccc(-c2nn(C3Cc4ccccc4C3)c3ncnc(N)c23)cc1N [Compound No. 73, 3-(3-amino-4-methoxyphenyl)-1-(2,3-dihydro-1H-inden-2-yl)-1H-pyrazolo[3,4-d]pyrimidin-4-amine] | 14.37 % Inh | 52.39 % Inh | 325 nM | 72.03 % Inh | 95.31 % Inh | 30.5 nM |  | 
Nc1ncnc2c1c(-c1cc(F)c(F)c(F)c1)nn2C1Cc2ccccc2C1 [Compound No. 86, 1-(2,3-dihydro-1H-inden-2-yl)-3-(3,4,5-trifluorophenyl)-1H-pyrazolo[3,4-d]pyrimidin-4-amine] | 20.84 % Inh |  |  | 21.34 % Inh |  |  | 17.21 % Inh | 8.08 % Inh
Nc1ncnc2c1c(-c1cn[nH]c1)nn2C1CCc2ccccc2C1 (racemic) [compound 20, 3-(1H-pyrazol-4-yl)-1-(1,2,3,4-tetrahydronaphthalen-2-yl)-1H-pyrazolo[3,4-d]pyrimidin-4-amine] |  |  | 157 nM |  |  | 2020 nM |  | 
Nc1ncnc2c1c(-c1ccc(F)c(O)c1)nn2C1CCCc2ccccc21 (stereo not shown) [compound 12, 5-(4-amino-1-tetralin-1-yl-pyrazolo[3,4-d]pyrimidin-3-yl)-2-fluoro-phenol] | 6.22 % Inh |  |  | 31.62 % Inh |  |  |  | 
